Results from patent US7163918B2, “Iodothyronine compositions” (New River Pharmaceuticals Inc., priority 2000, dated 2007).
Where a SMILES comes first, the peptide text is derived from it. [ ]: non-standard residue; d: D form. Thyronine(3,5,3'-I3) = N[C@@H](Cc1cc(I)c(Oc2ccc(O)c(I)c2)c(I)c1)C(=O)O

How the values were obtained:
[1] = Solid dose oral delivery, total T3 serum concentration AUC
[2] = molecular target: amidase (EC 3.5.1.4; from Pseudomonas aeruginosa) (Pseudomonas aeruginosa, UniProt P11436); conditions: Table 1; 37° C., 24 hours
Chain of amidase (EC 3.5.1.4; from Pseudomonas aeruginosa) (P11436 whole entry): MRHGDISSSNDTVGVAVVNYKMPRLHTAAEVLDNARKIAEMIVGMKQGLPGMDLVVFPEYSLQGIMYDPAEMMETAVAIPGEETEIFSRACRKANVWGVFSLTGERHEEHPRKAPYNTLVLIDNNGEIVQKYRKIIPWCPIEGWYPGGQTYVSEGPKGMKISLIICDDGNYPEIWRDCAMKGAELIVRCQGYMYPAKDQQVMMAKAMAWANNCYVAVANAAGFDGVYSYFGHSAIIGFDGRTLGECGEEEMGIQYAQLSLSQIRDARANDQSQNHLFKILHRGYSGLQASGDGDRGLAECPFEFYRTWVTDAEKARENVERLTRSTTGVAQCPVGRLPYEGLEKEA

[3] = set-up: species or system Sprague-dawley rats; conditions: rat, in vivo
Method: (§1) Compounds were tested in Sprague-dawley rats (˜250 g). […] Rats were dosed immediately following 0 hour serum collection.

[4] = rat, in vivo
[5] = Solution dose oral delivery, T4 N-capped trimer vs. T4 sodium salt, total serum T4; set-up: species or system Sprague-dawley rats; conditions: rat, in vivo
Method: as §1

## N[C@@H](CCC(=O)O)C(=O)N[C@@H](CCC(=O)O)C(=O)N[C@@H](CCC(=O)O)C(=O)N[C@@H](CCC(=O)O)C(=O)N[C@@H](CCC(=O)O)C(=O)N[C@@H](CCC(=O)O)C(=O)N[C@@H](CCC(=O)O)C(=O)N[C@@H](CCC(=O)O)C(=O)N[C@@H](CCC(=O)O)C(=O)N[C@@H](CCC(=O)O)C(=O)N[C@@H](CCC(=O)O)C(=O)N[C@@H](CCC(=O)O)C(=O)N[C@@H](CCC(=O)O)C(=O)N[C@@H](CCC(=O)O)C(=O)N[C@@H](CCC(=O)O)C(=O)N[C@@H](Cc1cc(I)c(Oc2ccc(O)c(I)c2)c(I)c1)C(=O)N[C@@H](CCC(=O)O)C(=O)N[C@@H](CCC(=O)O)C(=O)N[C@@H](CCC(=O)O)C(=O)N[C@@H](CCC(=O)O)C(=O)O [20-Mer] (H-EEEEEEEEEEEEEEE[Thyronine(3,5,3'-I3)]EEEE-OH)
[1]; Study No. 12, rats
  total AUC divided by total AUC for T3 sodium: (69%)

## CCCCCCCC(=O)N[C@@H](Cc1cc(I)c(Oc2ccc(OC(=O)CCCCCCC)c(I)c2)c(I)c1)C(=O)O [C8T3(C8), N-Octanoyl-L-triiodothyronine(O-octanoyl)]
[2]
  enzymatic release of T3, Amidase: 0.0

## N[C@@H](CCC(=O)O)C(=O)N[C@@H](Cc1cc(I)c(Oc2ccc(O)c(I)c2)c(I)c1)C(=O)O [C-Capped Dimer]
[1]; Study No. 13, rats
  total AUC divided by total AUC for T3 sodium: (81%)

## N[C@@H](CCC(=O)O)C(=O)N[C@@H](CCC(=O)O)C(=O)N[C@@H](Cc1cc(I)c(Oc2ccc(O)c(I)c2)c(I)c1)C(=O)O [C-Capped Trimer]
[1]; Study No. 13, rats
  total AUC divided by total AUC for T3 sodium: (89%)

## N[C@@H](Cc1cc(I)c(Oc2ccc(O)c(I)c2)c(I)c1)C(=O)N[C@@H](CCC(=O)O)C(=O)O [N-Capped Dimer]
[1]; Study No. 11, rats
  total AUC divided by total AUC for T3 sodium: (104%)

## N[C@@H](Cc1cc(I)c(Oc2ccc(O)c(I)c2)c(I)c1)C(=O)N[C@@H](CCC(=O)O)C(=O)N[C@@H](CCC(=O)O)C(=O)O [T3 N-capped trimer, H-(T3)EE-OH]
[3]
  increase of Cmax as compared to T3 sodium salt: 65.2%
  increase of mean AUC relative to the T3 sodium salt AUC: 50.3%
  increase of Δmax relative to the Δmax of T3 sodium salt: 75.9%
[1]; Study No. 11, rats
  total AUC divided by total AUC for T3 sodium: 123%
[1]; Study No. 11, rats, listed as N-Capped Trimer
  total AUC divided by total AUC for T3 sodium: (123%)
[1]; Study No. 17, rats
  total AUC divided by total AUC for T3 sodium: (102%)
[4]
  increase of Cmax over the corresponding T3 sodium salt control: 50.8%
  increase of mean AUC relative to the corresponding T3 sodium salt control: 72.1%
  increase of Δmax over the corresponding T3 sodium salt control: 85.6%

## CCCCCCCCCCCCCCCC(=O)Oc1ccc(Oc2c(I)cc(CC(N)C(=O)O)cc2I)cc1I.O=C(O)C(F)(F)F (centres unmarked) [T3C16, Trioodothyronine Hexadeconoate—TFA]
[2]
  enzymatic release of T3, Amidase: 1.2

## N[C@@H](Cc1cc(I)c(Oc2cc(I)c(O)c(I)c2)c(I)c1)C(=O)N[C@@H](CCC(=O)O)C(=O)N[C@@H](CCC(=O)O)C(=O)O [T4 N-capped trimer]
[5]; Sprague-Dawley, po
  Tmax (time to reach maximal concentration): 10.2 h
[5]
  increase of Cmax as compared to the sodium salt: 48%
  increase of mean AUC relative to the T4 sodium salt AUC: 115%
  increase of Δmax (Δ at Cmax) relative to the Δmax of T4 sodium salt: 68%
[5]; po
  Cmax +/− SD: 13.0 ± 0.6 ng/dL
  Cmax, Percent of T4 sodium salt: 148%
  Delta @ Cmax (change in total T4 serum levels from 0 hour level): 6.7 ± 1.5 ng/dL
  Delta @ Cmax, Percent of T4 sodium salt: 168%
